Assay results published in patent US7803801B2, “Aminopyridine compounds having Syk inhibitory activity” (Japan Tobacco, Inc., priority 2005, dated 2010).

Experiments:
[1] = target: GST-Syk Full Protein (human) (Homo sapiens, UniProt P43405); experiment: Syk kinase inhibition test (HTRF method); type: biochemical; details: HTRF, 100 μM ATP, 30 min room temperature, average; read-out: sykHTRF ave IC50
Method in brief: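 HTRF read-out: after EDTA termination and 1 h with XL665-streptavidin and Eu-anti-phosphotyrosine, the 665/620 nm ratio was measured. The reaction ran 30 min at 20–25 °C with final 6.4 nM human GST-Syk, 250 nM biotinylated peptide, 100 μM ATP, pH 7.0 HEPES buffer, 2% DMSO.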

[2] = test system: cultured human mast cells; experiment: Degranulation inhibition test using cultured human mast cells (IgE cross-linking, β-Hexosaminidase release); type: cell-based; details: Mast cell; cultured human mast cells, anti-hIgE stimulation, β-Hexosaminidase index, average; read-out: human degranulation ave. IC50
Method in brief: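 Degranulation was triggered by anti-hIgE (10 μg/mL final, 30 min, 37 °C) after a 10-min compound pretreatment (DMSO 0.1%) of cord-blood CD34+-derived mast cells primed 5 days with IL-4 and IgE. β-Hexosaminidase in supernatant was measured with p-nitrophenyl-GlcNAc substrate (A405), expressed against water-lysed total; IC50 (M).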

In the case of `Cc1ccnc(Nc2cccc(-c3cnc([C@@H](N)Cc4ccc(OCc5ccccc5)cc4)s3)n2)c1` [Compound A-86], the IC50 [1] is reported as 100 to 1000 nM and the IC50 [2] is reported as > 1000 nM.

For `CC(=O)N1C[C@H](OCc2ccccc2)C[C@H]1c1ncc(-c2cccc(Nc3cc(C)ccn3)n2)s1` [Compound A-90], the IC50 [1] was 100 to 1000 nM and the IC50 [2] was > 1000 nM.

In the case of `CC(=O)N[C@@H](C)c1ncc(-c2cccc(Nc3cc4ccccc4cn3)n2)s1` [Compound A-91, N—((S)-1-{5-[6-(isoquinolin-3-ylamino)pyridin-2-yl]thiazol-2-yl}ethyl)acetamide], the IC50 [1] is reported as < 100 nM and the IC50 [2] is reported as 100 to 1000 nM.

For `Cc1ccnc(Nc2cccc(-c3cnc(C4CCNCC4)s3)n2)c1` [Compound A-92, (4-methylpyridin-2-yl)-[6-(2-piperidin-4-ylthiazol-5-yl)pyridin-2-yl]amine], the IC50 [1] was < 100 nM and the IC50 [2] was 100 to 1000 nM.

In the case of `CC(=O)O[C@@H]1C[C@@H](c2ncc(-c3cccc(Nc4cc(C)ccn4)n3)s2)N(C(C)=O)C1` [Compound A-93], the IC50 [1] is reported as 100 to 1000 nM and the IC50 [2] is reported as > 1000 nM.

`CC(=O)N1CCC(c2ncc(-c3cccc(Nc4cc(C)ccn4)n3)s2)CC1` [Compound A-94] was tested, and the IC50 [1] was 100 to 1000 nM and the IC50 [2] was 100 to 1000 nM.

`CC(=O)N1C[C@H](O)C[C@H]1c1ncc(-c2cccc(Nc3cc(C)ccn3)n2)s1` [Compound A-95] was tested, and the IC50 [1] was 100 to 1000 nM and the IC50 [2] was > 1000 nM.

Compound `Cc1ccnc(Nc2cccc(-c3cnc([C@@H](N)CCC(=O)OCc4ccccc4)s3)n2)c1` [Compound A-97] has an IC50 [1] of 100 to 1000 nM and an IC50 [2] of 100 to 1000 nM.

In the case of `CC(=O)N[C@@H](CCC(=O)OCc1ccccc1)c1ncc(-c2cccc(Nc3cc(C)ccn3)n2)s1` [Compound A-98], the IC50 [1] is reported as 100 to 1000 nM and the IC50 [2] is reported as > 1000 nM.

Compound `CC(=O)N[C@@H](Cc1ccc(O)cc1)c1ncc(-c2cccc(Nc3cc(C)ccn3)n2)s1` [Compound A-99] has an IC50 [1] of 100 to 1000 nM and an IC50 [2] of 100 to 1000 nM.

`CCOC(=O)c1nc([C@H](C)N)sc1-c1cccc(Nc2cc(C)ccn2)n1` [Compound A-101] was tested, and the IC50 [1] was > 1000 nM and the IC50 [2] was > 1000 nM.

`CCOC(=O)c1nc([C@H](C)NC(C)=O)sc1-c1cccc(Nc2cc(C)ccn2)n1` [Compound A-102] was tested, and the IC50 [1] was > 1000 nM and the IC50 [2] was > 1000 nM.

With `CC(=O)N[C@@H](CCC(=O)O)c1ncc(-c2cccc(Nc3cc(C)ccn3)n2)s1` [Compound A-103] the IC50 [1] was 100 to 1000 nM and the IC50 [2] was > 1000 nM.

`Cc1ccnc(Nc2cccc(-c3sc([C@H](C)N)nc3C)n2)c1` [Compound A-104] was tested, and the IC50 [1] was 100 to 1000 nM and the IC50 [2] was > 1000 nM.

For `CC(=O)N[C@@H](C)c1nc(C)c(-c2cccc(Nc3cc(C)ccn3)n2)s1` [Compound A-105], the IC50 [1] was 100 to 1000 nM and the IC50 [2] was > 1000 nM.

With `Cc1ccnc(Nc2cccc(-c3cnc([C@@H](N)CCC(=O)O)s3)n2)c1` [Compound A-106] the IC50 [1] was 100 to 1000 nM and the IC50 [2] was > 1000 nM.

With `Cc1ccnc(Nc2cccc(-c3cnc([C@@H](O)CCC(=O)O)s3)n2)c1` [Compound A-107] the IC50 [1] was 100 to 1000 nM and the IC50 [2] was > 1000 nM.

With `CC(=O)N[C@@H](C)c1nc(CO)c(-c2cccc(Nc3cc(C)ccn3)n2)s1` [Compound A-108] the IC50 [1] was > 1000 nM and the IC50 [2] was > 1000 nM.

With `Cc1ccnc(Nc2cccc(-c3cnc(C4=NCCC4)s3)n2)c1` [Compound A-110] the IC50 [1] was 100 to 1000 nM and the IC50 [2] was 100 to 1000 nM.

`Cc1ccnc(Nc2cccc(-c3cnc([C@H]4CC[C@H](C(N)=O)CC4)s3)n2)c1` [Compound A-111, trans-4-{5-[6-(4-methylpyridin-2-ylamino)pyridin-2-yl]thiazol-2-yl}cyclohexanecarboxamide] was tested, and the IC50 [1] was < 100 nM and the IC50 [2] was 100 to 1000 nM.

With `Cc1ccnc(Nc2cccc(-c3cnc(C(C)(C)NC(=O)OC(C)(C)C)s3)n2)c1` [Compound A-112] the IC50 [1] was > 1000 nM and the IC50 [2] was > 1000 nM.

`Cc1ccnc(Nc2cccc(-c3cnc(C(C)(C)N)s3)n2)c1` [Compound A-113] showed an IC50 [1] of 100 to 1000 nM and an IC50 [2] of 100 to 1000 nM.

For `CC(=O)NC(C)(C)c1ncc(-c2cccc(Nc3cc(C)ccn3)n2)s1` [Compound A-114], the IC50 [1] was 100 to 1000 nM and the IC50 [2] was > 1000 nM.

`CC(=O)N[C@@H](C)c1nc(N)c(-c2cccc(Nc3cc(C)ccn3)n2)s1` [Compound A-115] was tested, and the IC50 [1] was > 1000 nM and the IC50 [2] was > 1000 nM.

`Cc1ccnc(Nc2cccc(-c3sc([C@H](C)NC(=O)CCC(=O)O)nc3C)n2)c1` [Compound A-116] was tested, and the IC50 [1] was > 1000 nM and the IC50 [2] was > 1000 nM.

For `CC(=O)N[C@@H](C)c1nc(C(N)=O)c(-c2cccc(Nc3cc(C)ccn3)n2)s1` [Compound A-117], the IC50 [1] was > 1000 nM and the IC50 [2] was > 1000 nM.

With `CC(=O)Nc1nc([C@H](C)NC(C)=O)sc1-c1cccc(Nc2cc(C)ccn2)n1` [Compound A-119] the IC50 [1] was > 1000 nM and the IC50 [2] was > 1000 nM.

`CCOC(=O)CCC(=O)N[C@@H](C)c1ncc(-c2cccc(Nc3cc(C)ccn3)n2)s1` [Compound A-120] was tested, and the IC50 [1] was > 1000 nM and the IC50 [2] was > 1000 nM.

In the case of `CCOC(=O)CC(=O)N[C@@H](C)c1ncc(-c2cccc(Nc3cc(C)ccn3)n2)s1` [Compound A-122], the IC50 [1] is reported as > 1000 nM and the IC50 [2] is reported as > 1000 nM.

For `Cc1ccnc(Nc2cccc(-c3cnc([C@H](C)NC(=O)CC(=O)O)s3)n2)c1` [Compound A-123], the IC50 [1] was 100 to 1000 nM and the IC50 [2] was > 1000 nM.

For `Cc1ccnc(Nc2cccc(-c3cnc(C(=O)CCC(=O)O)s3)n2)c1` [Compound A-124], the IC50 [1] was 100 to 1000 nM and the IC50 [2] was > 1000 nM.

For `CC(=O)N[C@@H](C)c1nc(C(C)=O)c(-c2cccc(Nc3cc(C)ccn3)n2)s1` [Compound A-126], the IC50 [1] was > 1000 nM and the IC50 [2] was > 1000 nM.

For `Cc1ccnc(Nc2cccc(-c3cnc(CCCCCNC(=O)OC(C)(C)C)s3)n2)c1` [Compound A-127], the IC50 [1] was > 1000 nM and the IC50 [2] was > 1000 nM.

For `Cc1ccnc(Nc2cccc(-c3cnc(CCCCCN)s3)n2)c1` [Compound A-128, 5-{5-[6-(4-methylpyridin-2-ylamino)pyridin-2-yl]thiazol-2-yl}pentylamine], the IC50 [1] was < 100 nM and the IC50 [2] was > 1000 nM.

For `CC(=O)NCCCCCc1ncc(-c2cccc(Nc3cc(C)ccn3)n2)s1` [Compound A-129], the IC50 [1] was 100 to 1000 nM and the IC50 [2] was > 1000 nM.

`COC(=O)CCCc1ncc(-c2cccc(Nc3cc(C)ccn3)n2)s1` [Compound A-130] was tested, and the IC50 [1] was 100 to 1000 nM and the IC50 [2] was > 1000 nM.

With `Cc1ccnc(Nc2cccc(-c3cnc(CCCC(=O)O)s3)n2)c1` [Compound A-131] the IC50 [1] was 100 to 1000 nM and the IC50 [2] was > 1000 nM.

In the case of `Cc1ccnc(Nc2cccc(-c3cnc(CCCCO)s3)n2)c1` [Compound A-132, 4-{5-[6-(4-methylpyridin-2-ylamino)pyridin-2-yl]thiazol-2-yl}butan-1-ol], the IC50 [1] is reported as < 100 nM and the IC50 [2] is reported as 100 to 1000 nM.

`COc1ccc(C[C@H](N)c2ncc(-c3cccc(Nc4cc(C)ccn4)n3)s2)cc1` [Compound A-134] was tested, and the IC50 [1] was 100 to 1000 nM and the IC50 [2] was > 1000 nM.

`Cc1ccnc(Nc2cccc(-c3cnc(CCc4ccc(O)cc4)s3)n2)c1` [Compound A-135, 4-(2-{5-[6-(4-methylpyridin-2-ylamino)pyridin-2-yl]thiazol-2-yl}ethyl)phenol] was tested, and the IC50 [1] was < 100 nM and the IC50 [2] was 100 to 1000 nM.

With `COc1ccc(C[C@H](NC(C)=O)c2ncc(-c3cccc(Nc4cc(C)ccn4)n3)s2)cc1` [Compound A-136] the IC50 [1] was 100 to 1000 nM and the IC50 [2] was > 1000 nM.

In the case of `COc1ccc(CCc2ncc(-c3cccc(Nc4cc(C)ccn4)n3)s2)cc1` [Compound A-137], the IC50 [1] is reported as 100 to 1000 nM and the IC50 [2] is reported as > 1000 nM.

With `COc1ccc(C[C@H](N)c2ncc(-c3cccc(Nc4cc(C)ccn4)n3)s2)cc1OC` [Compound A-138] the IC50 [1] was 100 to 1000 nM and the IC50 [2] was > 1000 nM.

`COc1ccc(C[C@H](NC(C)=O)c2ncc(-c3cccc(Nc4cc(C)ccn4)n3)s2)cc1OC` [Compound A-139] was tested, and the IC50 [1] was 100 to 1000 nM and the IC50 [2] was > 1000 nM.

With `CC(=O)N[C@@H](Cc1ccc(OCCO)cc1)c1ncc(-c2cccc(Nc3cc(C)ccn3)n2)s1` [Compound A-140] the IC50 [1] was 100 to 1000 nM and the IC50 [2] was > 1000 nM.

Work on `Cc1ccnc(Nc2cccc(-c3cnc([C@H](C)NC(=O)C4CC4)s3)n2)c1` [Compound A-141] yielded an IC50 [1] of 100 to 1000 nM and an IC50 [2] of 100 to 1000 nM.

`Cc1ccnc(Nc2cccc(-c3cnc(CN)s3)n2)c1` [Compound A-142] was tested, and the IC50 [1] was 100 to 1000 nM and the IC50 [2] was > 1000 nM.

Compound `CC(=O)NCc1ncc(-c2cccc(Nc3cc(C)ccn3)n2)s1` [Compound A-143] has an IC50 [1] of 100 to 1000 nM and an IC50 [2] of 100 to 1000 nM.

With `CCOC(=O)CC(C)(C)c1ncc(-c2cccc(Nc3cc(C)ccn3)n2)s1` [Compound A-144] the IC50 [1] was > 1000 nM and the IC50 [2] was > 1000 nM.

For `Cc1ccnc(Nc2cccc(-c3cnc(C(C)(C)CC(=O)O)s3)n2)c1` [Compound A-145], the IC50 [1] was 100 to 1000 nM and the IC50 [2] was > 1000 nM.

`CC(=O)OCC(=O)N[C@@H](C)c1ncc(-c2cccc(Nc3cc(C)ccn3)n2)s1` [Compound A-146] gave an IC50 [1] of 100 to 1000 nM and an IC50 [2] of 100 to 1000 nM.

With `Cc1ccnc(Nc2cccc(-c3cnc([C@H](C)NC(=O)CO)s3)n2)c1` [Compound A-147, 2-hydroxy-N—((S)-1-{5-[6-(4-methylpyridin-2-ylamino)pyridin-2-yl]thiazol-2-yl}ethyl)acetamide] the IC50 [1] was < 100 nM and the IC50 [2] was 100 to 1000 nM.

For `Cc1ccnc(Nc2cccc(-c3cnc(C(=O)NCCC(=O)O)s3)n2)c1` [Compound A-148, 3-({5-[6-(4-methylpyridin-2-ylamino)pyridin-2-yl]thiazole-2-carbonyl}amino)propionic acid], the IC50 [1] was < 100 nM and the IC50 [2] was > 1000 nM.

`Cc1ccnc(Nc2cccc(-c3cnc([C@H](N)c4ccc(OCc5ccccc5)cc4)s3)n2)c1` [Compound A-150] was tested, and the IC50 [1] was 100 to 1000 nM and the IC50 [2] was > 1000 nM.

In the case of `Cc1ccnc(Nc2cccc(-c3cnc(CCc4ccc(C(=O)O)cc4)s3)n2)c1` [Compound A-151, 4-(2-{5-[6-(4-methylpyridin-2-ylamino)pyridin-2-yl]thiazol-2-yl}ethyl)benzoic acid], the IC50 [1] is reported as < 100 nM and the IC50 [2] is reported as 100 to 1000 nM.
